For one data set, the system named is HT-29. As to the kind of experiment: Cytotoxicity against human HT-29 cells after 72 hrs by MTT assay. It counts as functional, cell-based. To be noted: HT-29, 72 h. For orientation: Formazan colour is commonly taken as a measure of viable cells.
Another data set deals with HeLa. The data set is described as follows: Cytotoxicity against human HeLa cells after 72 hrs by MTT assay. The format is functional, cell-based.
In a further data set the test system is Jurkat. The data set is described as follows: Cytotoxicity against human Jurkat cells after 72 hrs by XTT assay. It counts as functional, cell-based.
A short description of data set [1]: (§1) Cytotoxicity against human PC3 cells after 72 hrs by MTT assay. To be noted: PC-3, 72 h. It counts as functional, cell-based.
The test system of another data set is PC-3. Described as §1. The format is functional, cell-based.
The test system of the next data set is MCF7. As to the kind of experiment: Cytotoxicity against human MCF7 cells after 72 hrs by MTT assay. Conditions: for IC50: MCF7, 72 h. It counts as functional, cell-based.
Data set [2] can be described thus: (§2) Cytotoxicity against human MIAPaCa2 cells after 72 hrs by MTT assay. The format is functional, cell-based. Conditions: MIA PaCa-2, 72 h.
The test system of the next data set is MIA PaCa-2. Described as §2. The format is functional, cell-based.
The subject of a further data set is A-375. As to the kind of experiment: Cytotoxicity against human A375 cells after 72 hrs by MTT assay. To be noted: for IC50: A-375, 72 h. The format is functional, cell-based.
The next data set relates to BJ. As to the kind of experiment: Cytotoxicity against human BJ cells after 72 hrs by MTT assay. It counts as cell-based. To be noted: for IC50: Homo sapiens, BJ; for Activity: human, bj.

One may read the IC50 as the concentration that inhibits the measured activity by half. On to `C[C@H]1[C@H](C)CC[C@]2(C(=O)O)CC[C@]3(C)C(=CC[C@@H]4[C@@]5(C)C[C@@H](O)[C@H](O)[C@@](C)(CO)[C@@H]5CC[C@]43C)[C@H]12` [ASIATIC ACID], for which the IC50 was determined as 64.3 µM in the data set with HT-29; 52.5 µM with HeLa; 37.2 µM with Jurkat; 67.2 µM in [1]; 68.5 µM in the data set with MCF7; 50.7 µM in data set [2]. Moreover, the IC50 with A-375 is 50.3 µM; in the data set with BJ it was 88.7 µM. Also, the Activity entry in the data set with Jurkat, in the data set with PC-3, with MCF7, with MIA PaCa-2 and with A-375 was “Dose-dependent effect” in each case.
Take `C[C@H]1[C@H](C)CC[C@@]23CC[C@]4(C)[C@](OC2=O)([C@H](F)C[C@@H]2[C@@]5(C)C(C=O)=C[C@@](C)(COC(=O)c6ccccc6)[C@@H]5CC[C@]24C)[C@H]13`: the IC50 was found to be 1.05 µM with HT-29; 0.8 µM with HeLa; 0.88 µM in the data set on MCF7; 1.33 µM in data set [2]; 0.96 µM with A-375; 2.24 µM in the data set with BJ. Further, the Activity result with Jurkat, with PC-3, in the data set on MCF7, in the data set with MIA PaCa-2 and in the data set with A-375 was “Dose-dependent effect” in each case.
As for `C[C@H]1[C@H](C)CC[C@@]23CC[C@]4(C)[C@](OC2=O)([C@H](F)C[C@@H]2[C@@]5(C)C(C=O)=C[C@@](C)(COC(=O)n6ccnc6)[C@@H]5CC[C@]24C)[C@H]13`, the results for the IC50 with HT-29 and in the data set with HeLa were 2.37 µM and 1.62 µM, respectively. Also, the Activity entry with Jurkat, with PC-3, in the data set on MCF7, in the data set on MIA PaCa-2, in the data set on A-375 and with BJ was “Dose-dependent effect” throughout.
Turning to `CC(=O)OC[C@@]1(C)[C@@H]2CC[C@]3(C)[C@H](C[C@@H](F)[C@]45OC(=O)[C@@]6(CC[C@@H](C)[C@H](C)[C@H]64)CC[C@]53C)[C@@]2(C)C[C@@H](OC(C)=O)[C@@H]1OC(C)=O`, the IC50 in the data set on HT-29 was determined as 6.38 µM; in the data set with HeLa, 4.43 µM. The Activity result with Jurkat, in the data set on PC-3, in the data set on MCF7, with MIA PaCa-2, with A-375 and in the data set with BJ was “Dose-dependent effect” in each case.
Regarding `CCCC(=O)OC[C@]1(C)C=C(C=O)[C@@]2(C)[C@H]1CC[C@]1(C)[C@@H]2C[C@@H](F)[C@]23OC(=O)[C@@]4(CC[C@@H](C)[C@H](C)[C@H]42)CC[C@]31C`, the concentration for half-maximal inhibition (IC50) in the data set on HT-29 came out at 1.29 µM; in the data set on HeLa, 0.95 µM; in the data set on MCF7 it was 1.4 µM; in data set [2] it was 1.47 µM; in the data set with A-375, 1.02 µM. Further, the Activity result in the data set with Jurkat, with PC-3, in the data set with MCF7, in the data set on MIA PaCa-2 and with A-375 was “Dose-dependent effect” each time.
`COC(=O)CN1C(=O)[C@]23CC[C@@H](C)[C@H](C)[C@H]2[C@]12[C@H](F)C[C@@H]1[C@@]4(C)C[C@@H](OC(C)=O)[C@H](OC(C)=O)[C@@](C)(COC(C)=O)[C@@H]4CC[C@@]1(C)[C@]2(C)CC3`: the IC50 in the data set on HT-29 was 9.23 µM; in the data set with HeLa, 2.72 µM. Besides, the Activity entry in the data set with Jurkat, in the data set on PC-3, with MCF7, in the data set on MIA PaCa-2, with A-375 and in the data set on BJ was “Dose-dependent effect” in each case.
In the case of `C[C@H]1[C@H](C)CC[C@@]23CC[C@]4(C)[C@](OC2=O)([C@H](F)C[C@@H]2[C@@]5(C)CC(=O)[C@H](O)[C@@](C)(CO)[C@@H]5CC[C@]24C)[C@H]13`, the IC50 is 23.5 µM in the data set on HT-29 and 24.5 µM in the data set on HeLa. For the same compound, the Activity result with Jurkat, in the data set with PC-3, with MCF7, in the data set on MIA PaCa-2, in the data set with A-375 and with BJ was “Dose-dependent effect” throughout.
`CCCC(=O)OC[C@@]1(C)[C@@H]2CC[C@]3(C)[C@H](C[C@@H](F)[C@]45OC(=O)[C@@]6(CC[C@@H](C)[C@H](C)[C@H]64)CC[C@]53C)[C@@]2(C)C[C@@H](OC(=O)CCC)[C@@H]1OC(=O)CCC`: the figures for the IC50 with HT-29 and in the data set with HeLa were 7.4 µM and 5.05 µM, respectively. Moreover, the Activity entry in the data set with Jurkat, in the data set on PC-3, with MCF7, in the data set with MIA PaCa-2, with A-375 and in the data set with BJ was “Dose-dependent effect” each time.

Values taken from ChEMBL document CHEMBL3784916, “Synthesis and anticancer activity of novel fluorinated asiatic acid derivatives” (Eur J Med Chem, 2016).
